{"source": "patent US11945813B2", "about": "“5-substituted 4-amino-1H-benzo[c][1,2,6]thiadiazine 2,2-dioxides and formulations and uses thereof” (Firmenich Incorporated, priority 2018, dated 2024)", "biological_target": "T1, T1R2/T1R3 taste receptor (Homo sapiens, UniProt Q8TE23)", "T1 sequence (Q8TE23 20-839)": "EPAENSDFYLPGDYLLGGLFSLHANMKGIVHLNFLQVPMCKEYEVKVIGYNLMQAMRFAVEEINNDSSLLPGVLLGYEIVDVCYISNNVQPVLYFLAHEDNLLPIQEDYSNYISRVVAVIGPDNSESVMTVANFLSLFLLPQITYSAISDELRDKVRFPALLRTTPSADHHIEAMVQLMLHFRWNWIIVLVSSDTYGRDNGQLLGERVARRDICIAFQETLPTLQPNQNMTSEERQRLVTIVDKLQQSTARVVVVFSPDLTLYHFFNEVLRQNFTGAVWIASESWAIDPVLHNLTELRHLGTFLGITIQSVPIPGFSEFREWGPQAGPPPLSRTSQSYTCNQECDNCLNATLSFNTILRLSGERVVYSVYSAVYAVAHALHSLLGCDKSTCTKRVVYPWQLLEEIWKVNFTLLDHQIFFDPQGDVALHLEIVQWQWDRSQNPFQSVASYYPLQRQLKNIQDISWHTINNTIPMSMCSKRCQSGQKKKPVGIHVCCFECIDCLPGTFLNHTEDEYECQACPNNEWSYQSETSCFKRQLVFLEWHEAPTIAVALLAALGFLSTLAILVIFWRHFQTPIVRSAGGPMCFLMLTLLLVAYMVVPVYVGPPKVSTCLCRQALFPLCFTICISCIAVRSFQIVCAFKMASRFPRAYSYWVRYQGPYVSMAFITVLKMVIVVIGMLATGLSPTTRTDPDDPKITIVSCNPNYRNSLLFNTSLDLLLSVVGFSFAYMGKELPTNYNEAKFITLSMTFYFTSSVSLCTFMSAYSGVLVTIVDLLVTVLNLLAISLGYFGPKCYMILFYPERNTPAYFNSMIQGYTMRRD", "T1 sequence (Q7RTX0 21-852 partner)": "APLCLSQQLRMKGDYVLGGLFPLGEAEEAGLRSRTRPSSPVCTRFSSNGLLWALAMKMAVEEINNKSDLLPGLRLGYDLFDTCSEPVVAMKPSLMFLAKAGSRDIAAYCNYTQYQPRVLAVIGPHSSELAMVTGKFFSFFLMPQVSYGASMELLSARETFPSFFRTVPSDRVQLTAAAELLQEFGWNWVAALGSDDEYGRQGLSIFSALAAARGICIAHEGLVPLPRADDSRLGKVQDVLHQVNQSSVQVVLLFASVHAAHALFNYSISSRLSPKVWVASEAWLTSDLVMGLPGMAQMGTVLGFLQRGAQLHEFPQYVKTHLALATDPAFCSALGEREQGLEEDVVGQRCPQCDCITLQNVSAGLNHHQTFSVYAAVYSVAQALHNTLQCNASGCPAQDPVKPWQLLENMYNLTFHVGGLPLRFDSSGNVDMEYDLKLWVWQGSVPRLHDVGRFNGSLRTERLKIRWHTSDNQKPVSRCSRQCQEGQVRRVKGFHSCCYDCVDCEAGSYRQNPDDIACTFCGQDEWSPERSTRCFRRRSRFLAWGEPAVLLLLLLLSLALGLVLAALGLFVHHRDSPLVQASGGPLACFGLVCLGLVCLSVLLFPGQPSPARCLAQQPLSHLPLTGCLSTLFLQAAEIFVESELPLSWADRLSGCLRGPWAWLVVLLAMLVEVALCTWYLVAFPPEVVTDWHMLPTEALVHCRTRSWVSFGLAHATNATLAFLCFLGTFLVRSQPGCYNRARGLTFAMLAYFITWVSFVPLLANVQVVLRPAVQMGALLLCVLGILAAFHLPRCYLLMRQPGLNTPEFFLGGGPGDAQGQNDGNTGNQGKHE", "experiment": "Receptor-based assay: sweetener EC50 alone and with test compound (enhancement ratio)", "assay_type": "cell-based", "conditions": "for Fructose Enhancement EC50 Ratio: sweetener fructose; for Sucralose Enhancement EC50 Ratio: sweetener sucralose; for Sucrose Enhancement EC50 Ratio: sweetener sucrose", "procedure": "Potencies (EC50 values) for the sweeteners sucrose, sucralose, and fructose were measured against the T1R2/T1R3 taste receptor. EC50 was determined using the sweetener alone and in the presence of 3 μM, 10 μM, or 50 μM of test compound. EC50 ratios were calculated by the ratio of potency with and without the test compound. An “A” value indicates an enhancement ratio of greater than 20. A “B” value indicates an enhancement ratio from 10 to 20. A “C” value indicates an enhancement ratio greater than 1 and less than 10.", "data": [{"smiles": "COc1cc(OC)nc(N2CCC[C@H](COc3cccc4c3C(N)=NS(=O)(=O)N4)C2)n1", "note": "[Compound 306]", "values": [{"measurement": "Fructose Enhancement EC50 Ratio", "setting": "10 μM test compound", "value": "C (A “C” value indicates an enhancement ratio greater than 1 and less than 10)"}, {"measurement": "Sucralose Enhancement EC50 Ratio", "setting": "10 μM test compound", "value": "B (A “B” value indicates an enhancement ratio from 10 to 20)"}, {"measurement": "Sucralose Enhancement EC50 Ratio", "setting": "50 μM test compound", "value": "B (A “B” value indicates an enhancement ratio from 10 to 20)"}, {"measurement": "Sucrose Enhancement EC50 Ratio", "setting": "3 μM test compound", "value": "C (A “C” value indicates an enhancement ratio greater than 1 and less than 10)"}, {"measurement": "Sucrose Enhancement EC50 Ratio", "setting": "10 μM test compound", "value": "C (A “C” value indicates an enhancement ratio greater than 1 and less than 10)"}, {"measurement": "Sucrose Enhancement EC50 Ratio", "setting": "50 μM test compound", "value": "C (A “C” value indicates an enhancement ratio greater than 1 and less than 10)"}]}, {"smiles": "Cc1cc(C(=O)O)nc(N2CCC[C@H](COc3cccc4c3C(N)=NS(=O)(=O)N4)C2)n1", "note": "[Compound 307]", "values": [{"measurement": "Fructose Enhancement EC50 Ratio", "setting": "10 μM test compound", "value": "C (A “C” value indicates an enhancement ratio greater than 1 and less than 10)"}, {"measurement": "Fructose Enhancement EC50 Ratio", "setting": "50 μM test compound", "value": "C (A “C” value indicates an enhancement ratio greater than 1 and less than 10)"}, {"measurement": "Sucralose Enhancement EC50 Ratio", "setting": "10 μM test compound", "value": "A (An “A” value indicates an enhancement ratio of greater than 20)"}, {"measurement": "Sucralose Enhancement EC50 Ratio", "setting": "50 μM test compound", "value": "A (An “A” value indicates an enhancement ratio of greater than 20)"}, {"measurement": "Sucrose Enhancement EC50 Ratio", "setting": "3 μM test compound", "value": "C (A “C” value indicates an enhancement ratio greater than 1 and less than 10)"}, {"measurement": "Sucrose Enhancement EC50 Ratio", "setting": "10 μM test compound", "value": "C (A “C” value indicates an enhancement ratio greater than 1 and less than 10)"}, {"measurement": "Sucrose Enhancement EC50 Ratio", "setting": "50 μM test compound", "value": "C (A “C” value indicates an enhancement ratio greater than 1 and less than 10)"}]}, {"smiles": "NC1=NS(=O)(=O)Nc2cccc(OC[C@H]3CCCN(c4cccc(C(=O)NC5CC5)n4)C3)c21", "note": "[Compound 400, (S)-6-(3-(((4-amino-2,2-dioxido-1H-benzo[c][1,2,6]thiadiazin-5-yl)oxy)methyl)piperidin-1-yl)-N-cyclopropylpicolinamide]", "values": [{"measurement": "Fructose Enhancement EC50 Ratio", "setting": "10 μM test compound", "value": "C (A “C” value indicates an enhancement ratio greater than 1 and less than 10)"}, {"measurement": "Fructose Enhancement EC50 Ratio", "setting": "50 μM test compound", "value": "C (A “C” value indicates an enhancement ratio greater than 1 and less than 10)"}, {"measurement": "Sucralose Enhancement EC50 Ratio", "setting": "10 μM test compound", "value": "A (An “A” value indicates an enhancement ratio of greater than 20)"}, {"measurement": "Sucralose Enhancement EC50 Ratio", "setting": "50 μM test compound", "value": "A (An “A” value indicates an enhancement ratio of greater than 20)"}, {"measurement": "Sucrose Enhancement EC50 Ratio", "setting": "3 μM test compound", "value": "C (A “C” value indicates an enhancement ratio greater than 1 and less than 10)"}, {"measurement": "Sucrose Enhancement EC50 Ratio", "setting": "10 μM test compound", "value": "C (A “C” value indicates an enhancement ratio greater than 1 and less than 10)"}, {"measurement": "Sucrose Enhancement EC50 Ratio", "setting": "50 μM test compound", "value": "B (A “B” value indicates an enhancement ratio from 10 to 20)"}]}, {"smiles": "CNC(=O)c1cccc(N2CCC[C@H](COc3cccc4c3C(N)=NS(=O)(=O)N4)C2)n1", "note": "[Compound 401]", "values": [{"measurement": "Sucralose Enhancement EC50 Ratio", "setting": "10 μM test compound", "value": "A (An “A” value indicates an enhancement ratio of greater than 20)"}, {"measurement": "Sucralose Enhancement EC50 Ratio", "setting": "50 μM test compound", "value": "A (An “A” value indicates an enhancement ratio of greater than 20)"}, {"measurement": "Sucrose Enhancement EC50 Ratio", "setting": "3 μM test compound", "value": "C (A “C” value indicates an enhancement ratio greater than 1 and less than 10)"}, {"measurement": "Sucrose Enhancement EC50 Ratio", "setting": "10 μM test compound", "value": "B (A “B” value indicates an enhancement ratio from 10 to 20)"}, {"measurement": "Sucrose Enhancement EC50 Ratio", "setting": "50 μM test compound", "value": "C (A “C” value indicates an enhancement ratio greater than 1 and less than 10)"}]}, {"smiles": "CCNC(=O)c1cccc(N2CCC[C@H](COc3cccc4c3C(N)=NS(=O)(=O)N4)C2)n1", "note": "[Compound 402]", "values": [{"measurement": "Sucralose Enhancement EC50 Ratio", "setting": "10 μM test compound", "value": "A (An “A” value indicates an enhancement ratio of greater than 20)"}, {"measurement": "Sucralose Enhancement EC50 Ratio", "setting": "50 μM test compound", "value": "A (An “A” value indicates an enhancement ratio of greater than 20)"}, {"measurement": "Sucrose Enhancement EC50 Ratio", "setting": "3 μM test compound", "value": "C (A “C” value indicates an enhancement ratio greater than 1 and less than 10)"}, {"measurement": "Sucrose Enhancement EC50 Ratio", "setting": "10 μM test compound", "value": "C (A “C” value indicates an enhancement ratio greater than 1 and less than 10)"}, {"measurement": "Sucrose Enhancement EC50 Ratio", "setting": "50 μM test compound", "value": "C (A “C” value indicates an enhancement ratio greater than 1 and less than 10)"}]}, {"smiles": "CCCNC(=O)c1cccc(N2CCC[C@H](COc3cccc4c3C(N)=NS(=O)(=O)N4)C2)n1", "note": "[Compound 403]", "values": [{"measurement": "Fructose Enhancement EC50 Ratio", "setting": "10 μM test compound", "value": "C (A “C” value indicates an enhancement ratio greater than 1 and less than 10)"}, {"measurement": "Sucralose Enhancement EC50 Ratio", "setting": "10 μM test compound", "value": "A (An “A” value indicates an enhancement ratio of greater than 20)"}, {"measurement": "Sucralose Enhancement EC50 Ratio", "setting": "50 μM test compound", "value": "A (An “A” value indicates an enhancement ratio of greater than 20)"}, {"measurement": "Sucrose Enhancement EC50 Ratio", "setting": "3 μM test compound", "value": "C (A “C” value indicates an enhancement ratio greater than 1 and less than 10)"}, {"measurement": "Sucrose Enhancement EC50 Ratio", "setting": "10 μM test compound", "value": "C (A “C” value indicates an enhancement ratio greater than 1 and less than 10)"}, {"measurement": "Sucrose Enhancement EC50 Ratio", "setting": "50 μM test compound", "value": "C (A “C” value indicates an enhancement ratio greater than 1 and less than 10)"}]}, {"smiles": "COCCNC(=O)c1cccc(N2CCC[C@H](COc3cccc4c3C(N)=NS(=O)(=O)N4)C2)n1", "note": "[Compound 405]", "values": [{"measurement": "Fructose Enhancement EC50 Ratio", "setting": "10 μM test compound", "value": "C (A “C” value indicates an enhancement ratio greater than 1 and less than 10)"}, {"measurement": "Sucralose Enhancement EC50 Ratio", "setting": "10 μM test compound", "value": "B (A “B” value indicates an enhancement ratio from 10 to 20)"}, {"measurement": "Sucrose Enhancement EC50 Ratio", "setting": "3 μM test compound", "value": "C (A “C” value indicates an enhancement ratio greater than 1 and less than 10)"}, {"measurement": "Sucrose Enhancement EC50 Ratio", "setting": "10 μM test compound", "value": "C (A “C” value indicates an enhancement ratio greater than 1 and less than 10)"}]}, {"smiles": "CN(C)CCNC(=O)c1cccc(N2CCC[C@H](COc3cccc4c3C(N)=NS(=O)(=O)N4)C2)n1", "note": "[Compound 406]", "values": [{"measurement": "Fructose Enhancement EC50 Ratio", "setting": "10 μM test compound", "value": "C (A “C” value indicates an enhancement ratio greater than 1 and less than 10)"}, {"measurement": "Fructose Enhancement EC50 Ratio", "setting": "50 μM test compound", "value": "C (A “C” value indicates an enhancement ratio greater than 1 and less than 10)"}, {"measurement": "Sucralose Enhancement EC50 Ratio", "setting": "10 μM test compound", "value": "A (An “A” value indicates an enhancement ratio of greater than 20)"}, {"measurement": "Sucrose Enhancement EC50 Ratio", "setting": "3 μM test compound", "value": "C (A “C” value indicates an enhancement ratio greater than 1 and less than 10)"}, {"measurement": "Sucrose Enhancement EC50 Ratio", "setting": "10 μM test compound", "value": "B (A “B” value indicates an enhancement ratio from 10 to 20)"}, {"measurement": "Sucrose Enhancement EC50 Ratio", "setting": "50 μM test compound", "value": "B (A “B” value indicates an enhancement ratio from 10 to 20)"}]}, {"smiles": "CC(C)NC(=O)c1cccc(N2CCC[C@H](COc3cccc4c3C(N)=NS(=O)(=O)N4)C2)n1", "note": "[Compound 407]", "values": [{"measurement": "Fructose Enhancement EC50 Ratio", "setting": "10 μM test compound", "value": "C (A “C” value indicates an enhancement ratio greater than 1 and less than 10)"}, {"measurement": "Fructose Enhancement EC50 Ratio", "setting": "50 μM test compound", "value": "C (A “C” value indicates an enhancement ratio greater than 1 and less than 10)"}, {"measurement": "Sucrose Enhancement EC50 Ratio", "setting": "10 μM test compound", "value": "B (A “B” value indicates an enhancement ratio from 10 to 20)"}, {"measurement": "Sucrose Enhancement EC50 Ratio", "setting": "50 μM test compound", "value": "C (A “C” value indicates an enhancement ratio greater than 1 and less than 10)"}]}]}
